Here are results for 1 compound from patent US20130310436A1, “METHODS FOR PREDICTING RESPONSE TO BETA-BLOCKER THERAPY IN NON-ISCHEMIC HEART FAILURE PATIENTS” (The Regents of the University of Colorado, a body corporate, priority 2012, published 2013).

Holding throughout (type): in vivo, human
The test system of test [1] is patients with non-ischemic HFREF. As to the kind of experiment: BEST trial retrospective analysis: cumulative all-cause mortality, bucindolol vs placebo, by latent class subtype. An excerpt:
(§1) Methods: A total of 1121 patients with non-ischemic HFREF from the β-blocker Evaluation of Survival Trial were categorized according to 27 clinical features. See Tables 1 and 2 for the clinical features or information used. Latent class analysis was used to generate two latent class models, LCM A and B, Tables 3 and 4, respectively, to identify HFREF subtypes. LCM A consisted of features associated with HF pathogenesis, whereas LCM B consisted of markers of HF progression and severity. The Seattle Heart Failure Model (SHFM) Score was also calculated for all patients. Mortality, improvement in left ventricular ejection fraction (LVEF) defined as an increase in LVEF ≧5% and a final LVEF of […] after 12 months, and effect of bucindolol on both outcomes were compared across HFREF subtypes. Performance of models that included a combination of LCM subtypes and SHFM scores towards predicting mortality and LVEF response was estimated and subsequently validated using leave-one-out cross-validation and data from the Multicenter Oral Carvedilol Heart Failure Assessment (MOCHA) Trial.
(§2) Methods: All patients had New York Heart Association (NYHA) class III or IV HFREF (LVEF ≦35%) and were randomized in a double-blind fashion to either bucindolol (a β-blocker) or placebo. Patients were considered ischemic if they had ≧70% obstruction in a major epicardial coronary artery by angiography or evidence of prior myocardial infarction and excluded from this analysis. The primary endpoint was cumulative all-cause mortality. Secondary endpoints were all-cause mortality at one year and LVEF response defined as improvement in LVEF ≧5% with a final LVEF of ≧35% as measured using multi-gated acquisition scan (MUGA). […] They were randomized to placebo, low (6.25 mg bid), medium (12.5 mg bid), or high-dose (25 mg bid) carvedilol. Death and LVEF improvement as measured by MUGA were secondary endpoints in the original MOCHA analysis. Mortality data was only available up to one year of follow-up in MOCHA.
(§3) Association between latent class models and outcomes: Cox proportional-hazards models and the log-rank test were used to examine the associations between latent classes and cumulative all-cause mortality according to the intention-to-treat principle. These models were fit using the coxph and survfit functions from the survival library in the R statistical package. Logistic regression models were used for the one-year mortality and LVEF response outcomes. Interactions between latent classes and the treatment groups were used to estimate the response to treatment within each subtype.

Test [2] has the same test system. As to the kind of experiment: BEST trial retrospective analysis: all-cause mortality at one year, bucindolol vs placebo, by latent class subtype.
Description: as §1
as §2, with “MOCHA. […]” for “MOCHA.”

Test [3] has the same test system. As to the kind of experiment: BEST trial retrospective analysis: LVEF response (improvement in LVEF ≧5% with final LVEF ≧35%, MUGA), bucindolol vs placebo, by latent class subtype.
Description: as §1, §2, §3

As to `CC(C)(Cc1c[nH]c2ccccc12)NCC(O)COc1ccccc1C#N` (stereo not shown) [bucindolol], the “reduction in cumulative all-cause mortality associated with bucindolol” value in test [1] (LCM A subtype A1) was “no reduction”. In test [1] (LCM A subtype A2 (discussion)), the “reduction in mortality with bucindolol” value is on record as “no significant reduction”. Also, in test [1] (LCM A subtype A6, only LCM A subtype (discussion)), the “all-cause mortality with bucindolol” value was “decrease”. Besides, in test [1] (LCM A subtype A6, p=0.01), the “absolute risk reduction, cumulative all-cause mortality” value came out at 10.2%. Moreover, the “relative risk reduction, cumulative all-cause mortality” value in test [1] (LCM A subtype A6, p=0.01) was determined as 42%. In addition, in test [1] (LCM B subtype B2, p=0.01), the “improvement in mortality associated with bucindolol” value is reported as “significant improvement”. The “overall effect of bucindolol” value in test [1] (all non-ischemic BEST patients (discussion)) is listed as “not significant”. Moreover, the “patients in the bucindolol group died (cumulative all-cause mortality)” value in test [1] (all non-ischemic BEST patients, 131/558) is reported as 23.5%. For the same compound, the “HR, cumulative all-cause mortality, bucindolol vs placebo” value in test [1] (all non-ischemic BEST patients, 95% CI 0.65-1.04, p=0.1) came out at 0.82. For the same compound, the “effect of bucindolol on one-year mortality” value is recorded as “marginally significant difference” in test [2] (LCM A subtype A3, at 12 months, disappeared at subsequent follow-up); “trended towards benefit” in test [2] (LCM A subtype A6, did not reach statistical significance); “trended towards benefit” in test [2] (LCM B subtype B2, did not reach statistical significance). Also, the “likelihood of LVEF response with bucindolol” value is on record as “no effect” in test [3] (LCM A subtype A1); “significant increase” in test [3] (LCM A subtype A2); “significant increase” in test [3] (LCM A subtype A3); “significant increase” in test [3] (LCM A subtype A5); “significant increase” in test [3] (LCM A subtype A6). For the same compound, in test [3] (LCM A subtype A3), the “absolute increase in likelihood of LVEF response” value is 24.3%. Further, the “relative increase in likelihood of LVEF response” value in test [3] (LCM A subtype A3) amounted to 156%. For the same compound, the “likelihood of improvement in LVEF” value is “reached statistical significance” in test [3] (LCM B subtype B1); “reached statistical significance” in test [3] (LCM B subtype B2); “increased comparably” in test [3] (all LCM B subtypes, relative and absolute terms).
